Target: T1, human GPR40 (Homo sapiens, UniProt O14842)
T1 construct: expressed in transfected cells
Test: Evaluation of human GPR40 agonist activity with increase in intracellular Ca2+ concentration as an index (FLIPR)
Type: cell-based
Conditions: test compound 1 μM; CHO(dhfr−) cells stably expressing human GPR40; 100% = 10 μM compound of Example 153, 0% = DMSO
Procedure: Plasmid hGPR40/pAKKO-1.11H for mammalian cells expression, wherein cDNA fragment (SEQ ID NO: 1) encoding the full-length human GPR40 was incorporated into an expression vector pAKKO-1.11H (Biochimica et Biophysica Acta vol. 1219 pp. 251-259 (1994)), was transfected into CHO-dhfr(−) cells (ATCC, CRL-9096) by using Lipofectamine 2000 (Invitrogen:11668-019). After transfection, the limiting dilution-culture method was performed to select clone in selection medium (nucleic acid-free α-MEM (Invitrogen:12561-056)) containing 10% dialyzed bovine serum (Invitrogen:26400-044)). The expression level of human GPR40 mRNA was confirmed by TaqMan PCR (Life Technologies), and the intracellular calcium mobilization activity of GPR40 ligand (γ-linolenic acid) was confirmed by FLIPR (Molecular Devices), and a clone of human GPR40 expressing CHO cells was selected.
Evaluation of Human GPR40 Agonist Activity with Increase in Intracellular Ca^2+ Concentration as an Index
CHO(dhfr−) cells that stably expressed human GPR40 were suspended in MEMα (Nikken Bio Medical Laboratory) containing 10% dialyzed bovine serum (JR Scientific), 10 mM HEPES (Life Technologies), 100 U/mL penicillin, 100 μg/mL streptomycin (Life Technologies), and plated on a 384 well black/clear cell culture plate at 10,000 cells/well. After culture overnight in a CO2 incubator at 37° C., the culture supernatant was removed, and loading buffer [Ca^2+ probe attached to Calcium Kit II-iCellux (DOJINDO) was dissolved in assay buffer (20 mM HEPES, 0.1% fatty acid-free BSA (Sigma-Aldrich), 2.5 mM probenecid (DOJINDO)-containing HESS (Life Technologies))] was added at 30 μL/well. After leaving for 1 hr at room temperature under light shielding, assay buffer containing the test compound at a final concentration of 1 μM was added at 10 μL/well in FLIPR Tetra (Molecular Devices), and the fluorescence amount was successively measured. Human GPR40 agonist activity calculated using an increase in the intracellular Ca^2+ concentration as an index, wherein the activity of 10 μM of the compound of Example 153 was 100%, and the activity when DMSO was added instead of the test compound was 0%.

T1 sequence (O14842 whole entry): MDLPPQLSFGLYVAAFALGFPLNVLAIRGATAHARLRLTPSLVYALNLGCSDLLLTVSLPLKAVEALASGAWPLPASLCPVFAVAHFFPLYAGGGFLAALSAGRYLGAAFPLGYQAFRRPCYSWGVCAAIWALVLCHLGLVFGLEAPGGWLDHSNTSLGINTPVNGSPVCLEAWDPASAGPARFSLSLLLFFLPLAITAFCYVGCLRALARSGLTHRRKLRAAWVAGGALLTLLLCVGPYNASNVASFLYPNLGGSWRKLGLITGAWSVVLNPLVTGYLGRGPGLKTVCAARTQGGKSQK

| SMILES | activation at 1 µM [%] | Activity (human GPR40 agonist activity) [%] |
| --- | --- | --- |
| COc1ccc(C(=O)N(CC(C)C)c2ncccc2C)c(N2CCC(COc3cc(C(CC(=O)O)C4CC4)ccn3)CC2)c1 (stereo not shown) [Example 150, 3-cyclopropyl-3-(2-((1-(5-methoxy-2-((2-methylpropyl)(3-methylpyridin-2-yl)carbamoyl)phenyl)piperidin-4-yl)methoxy)pyridin-4-yl)propanoic acid] | 84 |  |
| COc1ccc(C(=O)N(c2ccccn2)C2CCN(Cc3ccccc3)CC2)c(N2CCC(COc3cc(C(CC(=O)O)C4CC4)ccn3)CC2)c1 (stereo not shown) [Example 190, 3-(2-((1-(2-((1-benzylpiperidin-4-yl)(pyridin-2-yl)carbamoyl)-5-methoxyphenyl)piperidin-4-yl)methoxy)pyridin-4-yl)-3-cyclopropylpropanoic acid] |  | 66 |
| COc1ccc(C(=O)N(CC(C)C)c2ccc(OC)nc2)c(N2CCC(COc3cc(C(CC(=O)O)C4CC4)ccn3)CC2)c1 (stereo not shown) [Example 140, 3-cyclopropyl-3-(2-((1-(5-methoxy-2-((6-methoxypyridin-3-yl)(2-methylpropyl)carbamoyl)phenyl)piperidin-4-yl)methoxy)pyridin-4-yl)propanoic acid] | 93 |  |
| COc1ccc(C(=O)N(CC(C)(C)C)c2nc(C)cc(C)n2)c(N2CCC(COc3cc(C(CC(=O)O)C4CC4)ccn3)CC2)c1 (stereo not shown) [Example 174, 3-cyclopropyl-3-(2-((1-(2-((2,2-dimethylpropyl)(4,6-dimethylpyrimidin-2-yl)carbamoyl)-5-methoxyphenyl)piperidin-4-yl)methoxy)pyridin-4-yl)propanoic acid] | 104 |  |
| COc1cc(N2CCC(COc3cc(C(CC(=O)O)C4CC4)ccn3)CC2)c(C(=O)N(CC(C)(C)C)c2cc(C)ncn2)cn1 (stereo not shown) [Example 257, 3-cyclopropyl-3-(2-((1-(5-((2,2-dimethylpropyl)(6-methylpyrimidin-4-yl)carbamoyl)-2-methoxypyridin-4-yl)piperidin-4-yl)methoxy)pyridin-4-yl)propanoic acid] | 98 |  |
| COc1ccc(C(=O)N(CC2CCC2)c2ccccn2)c(N2CCC(COc3cc(C(CC(=O)O)C4CC4)ccn3)CC2)c1 (stereo not shown) [Example 118, 3-(2-((1-(2-((cyclobutylmethyl)(pyridin-2-yl)carbamoyl)-5-methoxyphenyl)piperidin-4-yl)methoxy)pyridin-4-yl)-3-cyclopropylpropanoic acid] | 103 |  |
| CCc1ccc(C(=O)N(CC(F)(F)C(F)(F)F)C(C)C)c(N2CCC(COc3cccc(C(CC(=O)O)C4CC4)c3)CC2)c1 (stereo not shown) [Example 54, 3-cyclopropyl-3-(3-((1-(5-ethyl-2-((2,2,3,3,3-pentafluoropropyl)(propan-2-yl)carbamoyl)phenyl)piperidin-4-yl)methoxy)phenyl)propanoic acid] | 89 |  |
| COc1ccc(C(=O)N(CC(C)(C)C)c2cncc(C(F)(F)F)c2)c(N2CCC(COc3cc(C(CC(=O)O)C4CC4)ccn3)CC2)c1 (stereo not shown) [Example 235, 3-cyclopropyl-3-(2-((1-(2-((2,2-dimethylpropyl) (5-(trifluoromethyl)pyridin-3-yl)carbamoyl)-5-methoxyphenyl)piperidin-4-yl)methoxy)pyridin-4-yl)propanoic acid] | 91 |  |
| COc1ccc(C(=O)N(CC(F)(F)F)c2cncc(C)c2)c(N2CCC(COc3cc(C(CC(=O)O)C4CC4)ccn3)CC2)c1 (stereo not shown) [Example 175, 3-cyclopropyl-3-(2-((1-(5-methoxy-2-((5-methylpyridin-3-yl)(2,2,2-trifluoroethyl)carbamoyl)phenyl)piperidin-4-yl)methoxy)pyridin-4-yl)propanoic acid] | 90 |  |
| CCC(C)(C)N(C(=O)c1ccc(OC)cc1N1CCC(COc2cc(C(CC(=O)O)C3CC3)ccn2)CC1)c1ccccn1 (stereo not shown) [Example 145, 3-cyclopropyl-3-(2-((1-(5-methoxy-2-((2-methylbutan-2-yl)(pyridin-2-yl)carbamoyl)phenyl)piperidin-4-yl)methoxy)pyridin-4-yl)propanoic acid] | 96 |  |
| COc1ccc(C(=O)N(CC(C)C)c2cccc(OC)n2)c(N2CCC(COc3cc(C(CC(=O)O)C4CC4)ccn3)CC2)c1 (stereo not shown) [Example 128, 3-cyclopropyl-3-(2-((1-(5-methoxy-2-((6-methoxypyridin-2-yl)(2-methylpropyl)carbamoyl)phenyl)piperidin-4-yl)methoxy)pyridin-4-yl)propanoic acid] | 103 |  |
| COc1ccc(C(=O)N(CC2CC(F)(F)C2)c2ccccn2)c(N2CCC(COc3cc(C(CC(=O)O)C4CC4)ccn3)CC2)c1 (stereo not shown) [Example 162, 3-cyclopropyl-3-(2-((1-(2-(((3,3-difluorocyclobutyl)methyl)(pyridin-2-yl)carbamoyl)-5-methoxyphenyl)piperidin-4-yl)methoxy)pyridin-4-yl)propanoic acid] | 99 |  |
| COc1ccc(C(=O)N(CC(F)(F)F)c2nccc(C)n2)c(N2CCC(COc3cc(C(CC(=O)O)C4CC4)ccn3)CC2)c1 (stereo not shown) [Example 169, 3-cyclopropyl-3-(2-((1-(5-methoxy-2-((4-methylpyrimidin-2-yl)(2,2,2-trifluoroethyl)carbamoyl)phenyl)piperidin-4-yl)methoxy)pyridin-4-yl)propanoic acid] | 106 |  |
| COc1ccc(C(=O)N(CC(C)C)c2cc(C#N)ccn2)c(N2CCC(COc3cc(C(CC(=O)O)C4CC4)ccn3)CC2)c1 (stereo not shown) [Example 158, 3-(2-((1-(2-((4-cyanopyridin-2-yl)(2-methylpropyl)carbamoyl)-5-methoxyphenyl)piperidin-4-yl)methoxy)pyridin-4-yl)-3-cyclopropylpropanoic acid] | 96 |  |
| COc1ccc(C(=O)N2CCc3ccccc32)c(N2CCC(COc3cccc(C(CC(=O)O)C4CC4)c3)CC2)c1 (stereo not shown) [Example 4, 3-cyclopropyl-3-(3-((1-(2-(2,3-dihydro-1H-indol-1-ylcarbonyl)-5-methoxyphenyl)piperidin-4-yl)methoxy)phenyl)propanoic acid] | 97 |  |
| COc1ccc(C(=O)N(CC(F)(F)F)c2cc(C)ccn2)c(N2CCC(COc3cc(C(CC(=O)O)OC)ccn3)CC2)c1 (stereo not shown) [Example 271, 3-methoxy-3-(2-((1-(5-methoxy-2-((4-methylpyridin-2-yl)(2,2,2-trifluoroethyl)carbamoyl)phenyl)piperidin-4-yl)methoxy)pyridin-4-yl)propanoic acid] | 98 |  |
| COc1ccc(C(=O)Nc2cccc(C)n2)c(N2CCC(COc3cc(C(CC(=O)O)C4CC4)ccn3)CC2)c1 (stereo not shown) [Example 241, 3-cyclopropyl-3-(2-((1-(5-methoxy-2-((6-methylpyridin-2-yl)-carbamoyl)phenyl)-piperidin-4-yl)methoxy)pyridin-4-yl)propanoic acid] | 95 |  |
| CSc1ccc(C(=O)N(CC(C)(C)C)c2cccc(C)n2)c(N2CCC(COc3cc(C(CC(=O)O)C4CC4)ccn3)CC2)c1 (stereo not shown) [Example 262, 3-cyclopropyl-3-(2-((1-(2-((2,2-dimethylpropyl)(6-methylpyridin-2-yl)carbamoyl)-5-(methylsulfanyl)phenyl)piperidin-4-yl)methoxy)pyridin-4-yl)propanoic acid] | 90 |  |
| COc1ccc(C(=O)N(CC(C)(C)C)c2ccccn2)c(N2CCC(COc3cccc(C(CC(=O)O)C4CC4)c3)CC2)n1 (stereo not shown) [Example 254, 3-cyclopropyl-3-(3-((1-(3-((2,2-dimethylpropyl)(pyridin-2-yl)carbamoyl)-6-methoxypyridin-2-yl)piperidin-4-yl)methoxy)phenyl)propanoic acid] | 74 |  |
